Measurements: PubChem BioAssay (NCI)
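Following 48 hours of exposure in 96-well plates, responses at five concentrations were used to interpolate endpoints linearly. The concentration for full growth arrest is given as TGI.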

What was measured:
Test in all cases: growth of human tumour cells (NCI), 48 h
[1] = system: HCT-15 colon
[2] = system: U251 CNS
[3] = system: SK-MEL-2 melanoma
[4] = system: KM12 colon
[5] = system: HOP-92 NSCLC
[6] = system: OVCAR-4 ovarian
[7] = system: SW-620 colon
[8] = system: MALME-3M melanoma
[9] = system: HOP-18 NSCLC
[10] = system: SNB-75 CNS
[11] = system: HT29 colon
[12] = system: RXF 393 renal
[13] = system: NCI-H226 lung
[14] = system: COLO 205 colon
[15] = system: OVCAR-3 ovarian
[16] = system: SK-MEL-5 melanoma
[17] = system: SNB-19 CNS
[18] = system: M14 melanoma
[19] = system: NCI-H23 lung
[20] = system: HL-60(TB) leukemia
[21] = system: CCRF-CEM leukemia
[22] = system: SF-268 CNS
[23] = system: SN12C renal
[24] = system: MOLT-4 leukemia
[25] = system: HOP-62 NSCLC
[26] = system: SR leukemia
[27] = system: IGROV1 ovarian
[28] = system: SK-OV-3 ovarian
[29] = system: SF-295 CNS
[30] = system: ACHN renal
[31] = system: SF-539 CNS
[32] = system: LXFL 529 NSCLC
[33] = system: DMS 273 small cell lung
[34] = system: SK-MEL-28 melanoma
[35] = system: HCC-2998 colon
[36] = system: DLD-1 colon
[37] = system: KM20L2 colon
[38] = system: NCI-H522 lung
[39] = system: UACC-257 melanoma
[40] = system: DMS 114 small cell lung
[41] = system: A498 renal
[42] = system: EKVX NSCLC
[43] = system: CAKI-1 renal
[44] = system: NCI-H460 lung
[45] = system: M19-MEL melanoma
[46] = system: SNB-78 CNS
[47] = system: RPMI-8226 leukemia
[48] = system: TK-10 renal
[49] = system: OVCAR-5 ovarian
[50] = system: LOX IMVI melanoma
[51] = system: UO-31 renal
[52] = system: OVCAR-8 ovarian
[53] = system: A549 NSCLC
[54] = system: 786-0 renal
[55] = system: XF 498 CNS
[56] = system: HCT-116 colon
[57] = system: UACC-62 melanoma
[58] = system: K-562 leukemia
[59] = system: DU-145 prostate
[60] = system: MDA-N
[61] = system: MCF7 breast
[62] = system: MDA-MB-231 breast
[63] = system: HS 578T breast
[64] = system: MDA-MB-435
[65] = system: PC-3 prostate
[66] = system: BT-549 breast
[67] = system: T-47D breast
[68] = system: NCI/ADR-RES ovarian

SMILES: Cc1ccc(N(C(=O)CC(=O)N2N=C(c3ccccc3)C(N=Nc3ccc([N+](=O)[O-])cc3)C2=O)C(=O)c2ccc(Cl)cc2)cc1 (configuration not stated)
- TGI [1]: > 48.6 µM
- TGI [2]: 23.7 µM
- TGI [3]: > 62.4 µM
- TGI [4]: > 78.9 µM
- TGI [5]: 56.5 µM
- TGI [6]: > 100 µM
- TGI [7]: > 59.6 µM
- TGI [8]: > 100 µM
- TGI [9]: > 85.6 µM
- TGI [10]: 39.1 µM
- TGI [11]: > 53 µM
- TGI [12]: 10.9 µM
- TGI [13]: > 94.8 µM
- TGI [14]: 10.4 µM
- TGI [15]: > 91.6 µM
- TGI [16]: 84.8 µM
- TGI [17]: 60.1 µM
- TGI [18]: 18.4 µM
- TGI [19]: 28.2 µM
- TGI [20]: > 56.5 µM
- TGI [21]: > 30.9 µM
- TGI [22]: 35.4 µM
- TGI [23]: > 81.1 µM
- TGI [24]: > 100 µM
- TGI [25]: 29.8 µM
- TGI [26]: 23.1 µM
- TGI [27]: 45.9 µM
- TGI [28]: 32.2 µM
- TGI [29]: 25.6 µM
- TGI [30]: > 100 µM
- TGI [31]: 35.6 µM
- TGI [32]: > 52.9 µM
- TGI [33]: 20.3 µM
- TGI [34]: > 100 µM
- TGI [35]: > 100 µM
- TGI [36]: > 55.9 µM
- TGI [37]: > 100 µM
- TGI [38]: 9.76 µM
- TGI [39]: > 72.7 µM
- TGI [40]: > 51.1 µM
- TGI [41]: 36.9 µM
- TGI [42]: > 100 µM
- TGI [43]: > 76.8 µM
- TGI [44]: > 47.8 µM
- TGI [45]: > 53.9 µM
- TGI [46]: > 100 µM
- TGI [47]: > 59.1 µM
- TGI [48]: > 51.4 µM
- TGI [49]: > 45.3 µM
- TGI [50]: 15.7 µM
- TGI [51]: > 100 µM
- TGI [52]: 38.3 µM
- TGI [53]: > 51.8 µM
- TGI [54]: 30.5 µM
- TGI [55]: 52.2 µM
- TGI [56]: 22.4 µM
- TGI [57]: > 100 µM
- TGI [58]: > 71.3 µM

SMILES: O=C(O)C(CO)NC(=O)C1C(C(=O)O)C(c2ccccc2[N+](=O)[O-])C=C(c2ccco2)N1c1ccncc1 (configuration not stated)
- TGI [1]: 4.39 µM
- TGI [2]: 6.21 µM
- TGI [59]: 23.6 µM
- TGI [3]: 31 µM
- TGI [4]: 3.35 µM
- TGI [5]: 25.7 µM
- TGI [60]: 8.42 µM
- TGI [6]: 25.3 µM
- TGI [61]: 5.63 µM
- TGI [7]: 3.79 µM
- TGI [8]: 29.1 µM
- TGI [62]: 7.56 µM
- TGI [63]: 57.5 µM
- TGI [10]: 22.3 µM
- TGI [11]: 3.66 µM
- TGI [12]: 3.12 µM
- TGI [13]: 39.1 µM
- TGI [14]: 12 µM
- TGI [15]: 17.1 µM
- TGI [16]: 10.2 µM
- TGI [17]: 24.5 µM
- TGI [18]: 13.9 µM
- TGI [64]: 16.8 µM
- TGI [19]: 19.9 µM
- TGI [65]: 22.1 µM
- TGI [20]: > 100 µM
- TGI [21]: 5.32 µM
- TGI [22]: 30.5 µM
- TGI [23]: 25.4 µM
- TGI [24]: > 22.5 µM
- TGI [25]: 25.2 µM
- TGI [66]: 22.8 µM
- TGI [26]: > 100 µM
- TGI [27]: 4.15 µM
- TGI [28]: 29.4 µM
- TGI [29]: 19 µM
- TGI [30]: 3.67 µM
- TGI [67]: 23.9 µM
- TGI [31]: 3.64 µM
- TGI [34]: 22.5 µM
- TGI [35]: 9.13 µM
- TGI [38]: 19 µM
- TGI [68]: 59 µM
- TGI [39]: 9.9 µM
- TGI [41]: 24.8 µM
- TGI [42]: 32.7 µM
- TGI [43]: 24.3 µM
- TGI [44]: 18.5 µM
- TGI [47]: 4.22 µM
- TGI [48]: 9.48 µM
- TGI [49]: 25.4 µM
- TGI [50]: 3.42 µM
- TGI [51]: 10.4 µM
- TGI [52]: 31 µM
- TGI [53]: 11.1 µM
- TGI [54]: 6.01 µM
- TGI [56]: 3.08 µM
- TGI [57]: 20.3 µM
- TGI [58]: 5.74 µM
